Reference: article PMC7345836, “Absorption and Tissue Distribution of Siphonaxanthin from Green Algae” (Marine Drugs, 2020)

Columns and labels:
[1] = Body weight, food intake and tissue weight of ICR mice fed siphonaxanthin diet; type: in vivo
Procedure: (§1) All experimental animal protocols were approved by the Animal Experimentation Committee of Kyoto University, Japan, for the care and use of experimental animals (Approval No. 26–35). Male ICR mice (7 weeks of age) were purchased from Japan SLC, Inc. (Hamamatsu, Japan). All mice were housed individually and maintained on an alternating 12-h light/dark cycle at a temperature of 23 ± 1 °C and free access to drinking water and chow (Oriental Yeast Co., Ltd., Tokyo, Japan). After an acclimatization period of 1 week, the mice were randomly divided into control and siphonaxanthin groups (n = 4 per group). Mice in the control group were fed an AIN-93G diet. The siphonaxanthin mouse group was fed the AIN-93G diet with siphonaxanthin supplementation, 65.79 nmol/g of diet (0.004%). The total food intake and body weight were recorded daily. After dietary supplementation for 16 days, the mice were anesthetized with isoflurane. Blood was collected from the caudal vena cava. Plasma was prepared by centrifuging at 400 g for 15 min at 4 °C. The tissues were rapidly removed, weighed, and immediately frozen in liquid nitrogen, and stored at −80 °C until use.

[2] = Tissue distribution and accumulation of siphonaxanthin and its metabolites in mice after 16-day dietary supplementation (HPLC); type: in vivo; settings: ICR mice
Procedure: as §1
Carotenoids were then extracted from the plasma and tissues. Briefly, aliquots of tissue samples (0.2 g) were homogenized in a 9-fold volume of 0.9% NaCl saline with a homogenizer dispenser (T10 basic ULTRA-TURRAX, IKA). Plasma samples were diluted with a 3-fold volume of Milli-Q water. The resultant tissue homogenates (0.9 mL) or diluent plasma samples (0.9 mL) were mixed with 3 mL of dichloromethane/methanol (2:1, v/v) to extract carotenoids. The samples were extracted three times, and the dichloromethane layer was collected after centrifugation at 1690 g at 4 °C for 10 min. After evaporation under nitrogen, the residue was resuspended in 20 μL of dichloromethane and methanol (1:1, v/v) for HPLC analysis.
HPLC analysis was performed using a Prominence LC system (Shimadzu, Kyoto, Japan) connected to a photodiode array detector (SPD-M20A, Shimadzu, Kyoto, Japan), followed by an ion trap-time of flight mass spectrometer (LCMS-IT-TOF, Shimadzu, Kyoto, Japan) equipped with an atmospheric pressure chemical ionization (APCI) source or electrospray ionization (ESI) source. Siphonaxanthin was separated on a TSK gel ODS-80Ts QA column (2.0 × 250 mm, 5 μm, Tosoh, Tokyo, Japan). The binary gradient mobile phase was methanol/water (83:17, v/v) containing 0.1% ammonium acetate as mobile phase A and ethyl acetate/methanol (30:70, v/v) containing 0.1% ammonium acetate as mobile phase B. The column was eluted at a flow rate of 0.2 mL/min using the following gradients: 0–30 min, 0% B; 30–45 min, 0–100% B; 45–60 min, 100% B; 60–65 min, 100–0% B; 65–70 min, 0% B. Siphonaxanthin was detected at 450 nm. The APCI source was heated at 200 °C, and the probe was maintained at 400 °C. Nitrogen was used as sheath gas at 2.0 L/min, and drying gas was used at 25 kPa. Mass spectra were recorded in the positive ion mode. For the ESI source, sheath gas was set at 1.5 L/min, and drying gas was used at 120 kPa. A spray voltage of 4.5 kV was used for positive ionization. The peak identities of siphonaxanthin and its possible metabolites were further confirmed from their characteristic UV-vis spectra and their positive ions. Siphonaxanthin was quantified from its peak area at 450 nm using an external standard calibration curve with purified siphonaxanthin. Due to the unavailability of standards, possible metabolites of siphonaxanthin were estimated from the siphonaxanthin standard curve.

Caco-2 cells = experiment: Uptake and metabolism of micellar siphonaxanthin by differentiated Caco-2 cells; type: in vitro ADME, human; settings: Caco-2 cells incubated with 1 nmol/well siphonaxanthin solubilized micelles for 1, 3, 6 and 24 h
Procedure: Caco-2 cells obtained from the RIKEN Gene Bank (Tsukuba, Japan) were cultured in Dulbecco’s Modified Eagle’s Medium (DMEM) containing 10% fetal bovine serum (FBS), 1% penicillin-streptomycin (PS), and 1% non-essential amino acids in a humidified atmosphere of 95% air and 5% CO2 at 37 °C. For differentiation, cells were seeded in 12-well plates at a density of 2.0 × 10^5 cells/well in 1 mL DMEM medium described above and allowed to differentiate until day 22 from seeding. The medium was regularly changed three times a week. Experiments were performed at day 22 post-seeding on 12-well plates.
Siphonaxanthin solubilized in micelles was added to the medium for treatment, and micelle formation was performed as previously described. […] The concentration of micellar carotenoid was determined as 1.0 ± 0.05 μmol/L by HPLC before use in the following experiment.
The cell monolayers on 12-well plates were rinsed with the serum-free medium and then incubated in 1 mL of medium containing micellar siphonaxanthin. […] The residue was dissolved in methanol and subjected to quantitative and qualitative analysis. […] The concentration of siphonaxanthin in the medium was also analyzed. An aliquot of the medium was mixed with 4-fold methanol and subjected to the above HPLC analysis for quantify. […]

[3] = siphonaxanthin diet vs control diet, 16 days

## CC1=C[C@H](O)CC(C)(C)[C@H]1/C=C/C(C)=C/C=C/C(C)=C/C=C/C=C(C)/C=C/C=C(\CO)C(=O)CC1=C(C)C[C@@H](O)CC1(C)C [Siphonaxanthin, 3,19,3’-Trihydroxy-7,8-dihydro-β,ε-caroten-8-one]
[1]; [3]
  Body weight: not altered
  Weight of the other tissues: did not significantly decrease
[1]; siphonaxanthin diet vs control diet, 16 days, p < 0.05
  Weight of the spleen: significantly decreased
[1]; siphonaxanthin vs control group, 16-day experimental period
  Food intake: not altered
[2]; Brain, 16-day diet with siphonaxanthin 65.79 nmol/g, mean ± SEM, n = 4, N.D., not detected
  Concentration in brain: 0.4 ± 0.3 pmol/g
[2]; Brain, 16-day siphonaxanthin diet
  % of the total carotenoids in brain: 100%
[2]; Colon, 16-day diet with siphonaxanthin 65.79 nmol/g, mean ± SEM, n = 4
  Concentration in colon: 198 ± 24.5 pmol/g
[2]; Colon, 16-day siphonaxanthin diet
  % of the total carotenoids in colon: 82.5%
[2]; Epididymal WAT, 16-day siphonaxanthin diet
  % of the total carotenoids in epididymal WAT: 14.6%
[2]; Epididymal white adipose tissue, 16-day diet with siphonaxanthin 65.79 nmol/g, mean ± SEM, n = 4, N.D., not detected
  Concentration in epididymal WAT: 27.8 ± 14.3 pmol/g
[2]; Heart, 16-day diet with siphonaxanthin 65.79 nmol/g, mean ± SEM, n = 4
  Concentration in heart: 67.1 ± 25.2 pmol/g
[2]; Heart, 16-day siphonaxanthin diet
  % of the total carotenoids in heart: 52.2%
[2]; Interscapular brown adipose tissue, 16-day diet with siphonaxanthin 65.79 nmol/g, mean ± SEM, n = 4
  Concentration in BAT: 30.5 ± 11.4 pmol/g
[2]; Interscapular brown adipose tissue, 16-day siphonaxanthin diet
  % of the total carotenoids in BAT: 41.7%
[2]; Kidney, 16-day diet with siphonaxanthin 65.79 nmol/g, mean ± SEM, n = 4
  Concentration in kidney: 38.2 ± 15.7 pmol/g
[2]; Kidney, 16-day siphonaxanthin diet
  % of the total carotenoids in kidney: 84.1%
[2]; Liver, 16-day diet with siphonaxanthin 65.79 nmol/g, mean ± SEM, n = 4
  Concentration in liver: 37.1 ± 14.4 pmol/g
[2]; Liver, 16-day siphonaxanthin diet
  % of the total carotenoids in liver: 18.7%
[2]; Lung, 16-day diet with siphonaxanthin 65.79 nmol/g, mean ± SEM, n = 4
  Concentration in lung: 22.9 ± 8.2 pmol/g
[2]; Lung, 16-day siphonaxanthin diet
  % of the total carotenoids in lung: 38.8%
[2]; Mesenteric WAT, 16-day siphonaxanthin diet
  % of the total carotenoids in mesenteric WAT: 24.5%
[2]; Mesenteric white adipose tissue, 16-day diet with siphonaxanthin 65.79 nmol/g, mean ± SEM, n = 4
  Concentration in mesenteric WAT: 110 ± 50.8 pmol/g
[2]; Muscle, 16-day diet with siphonaxanthin 65.79 nmol/g, mean ± SEM, n = 4
  Concentration in muscle: 14.2 ± 7.5 pmol/g
[2]; Muscle, 16-day siphonaxanthin diet
  % of the total carotenoids in muscle: 52.6%
[2]; Pancreas, 16-day diet with siphonaxanthin 65.79 nmol/g, mean ± SEM, n = 4
  Concentration in pancreas: 46.1 ± 12.5 pmol/g
[2]; Pancreas, 16-day siphonaxanthin diet
  % of the total carotenoids in pancreas: 45.4%
[2]; Perirenal WAT, 16-day siphonaxanthin diet
  % of the total carotenoids in perirenal WAT: 13.3%
[2]; Perirenal white adipose tissue, 16-day diet with siphonaxanthin 65.79 nmol/g, mean ± SEM, n = 4
  Concentration in perirenal WAT: 22.1 ± 12.0 pmol/g
[2]; Plasma, 16-day siphonaxanthin diet
  % of the total carotenoids in plasma: 5.5%
[2]; Small intestine, 16-day diet with siphonaxanthin 65.79 nmol/g, mean ± SEM, n = 4
  Concentration in small intestine: 3428 ± 1389 pmol/g
[2]; Small intestine, 16-day siphonaxanthin diet
  % of the total carotenoids in small intestine: 79.5%
[2]; Spleen, 16-day diet with siphonaxanthin 65.79 nmol/g, mean ± SEM, n = 4
  Concentration in spleen: 20.6 ± 3.4 pmol/g
[2]; Spleen, 16-day siphonaxanthin diet
  % of the total carotenoids in spleen: 45.7%
[2]; Stomach, 16-day diet with siphonaxanthin 65.79 nmol/g, mean ± SEM, n = 4, siphonaxanthin standard curve
  Concentration in stomach: 2054 ± 636 pmol/g
[2]; Stomach, 16-day siphonaxanthin diet
  % of the total carotenoids in stomach: 94.0%
[2]; Testis, 16-day diet with siphonaxanthin 65.79 nmol/g, mean ± SEM, n = 4
  Concentration in testis: 25.0 ± 10.0 pmol/g
[2]; Testis, 16-day siphonaxanthin diet
  % of the total carotenoids in testis: 84.3%
[2]; male, mouse, oral, 65.79 nmol/g of diet, Plasma, 16-day diet with siphonaxanthin 65.79 nmol/g, mean ± SEM, n = 4
  concentration at 16 days: 18.3 ± 4 nM
Caco-2 cells
  Cellular concentration of siphonaxanthin: rapidly and linearly increased until 3 h after incubation, and then gradually increased until 24 h
  Concentration of siphonaxanthin in the medium: decreased with increasing incubation time
